Data reported in ChEMBL document CHEMBL1126580, “Enantiospecific syntheses of alpha-(fluoromethyl)tryptophan analogues: interactions with tryptophan hydroxylase and aromatic L-amino acid decarboxylase” (J Med Chem, 1993).

Target: T1, Aromatic-L-amino-acid decarboxylase (Mus musculus, UniProt O88533)
T1 sequence (O88533 whole entry): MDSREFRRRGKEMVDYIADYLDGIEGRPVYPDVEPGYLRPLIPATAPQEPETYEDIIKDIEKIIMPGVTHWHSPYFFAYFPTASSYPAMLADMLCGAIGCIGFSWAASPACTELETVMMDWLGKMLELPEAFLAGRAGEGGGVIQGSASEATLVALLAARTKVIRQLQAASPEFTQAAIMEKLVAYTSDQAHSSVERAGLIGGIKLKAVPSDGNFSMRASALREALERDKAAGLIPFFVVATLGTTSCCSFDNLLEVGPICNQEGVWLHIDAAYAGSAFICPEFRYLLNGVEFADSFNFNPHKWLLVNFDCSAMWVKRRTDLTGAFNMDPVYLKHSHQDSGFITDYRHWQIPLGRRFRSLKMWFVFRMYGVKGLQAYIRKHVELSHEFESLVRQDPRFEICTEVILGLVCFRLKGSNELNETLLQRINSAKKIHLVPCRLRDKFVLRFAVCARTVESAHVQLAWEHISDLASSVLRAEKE
Experiment: Dissociation constant (KI) was evaluated as inhibitor of murine liver aromatic L-amino acid decarboxylase (AADC)

Compound `N[C@@](CF)(Cc1c[nH]c2ccc(O)cc12)C(=O)O` has a Ki of 24.3 µM.
